Counter-ions that a name gives are not always drawn.

The data set is described as follows: collision cross section in nitrogen (drift tube, single-field); higher = larger gas-phase ion size.
The mark [1] stands for this setting: ion type: [M-H], ion source: ESI, ion mode: Negative.
Where [2] appears, read: ion type: [M+H], ion source: APCI, ion mode: Positive.
[3] abbreviates: ion type: [M+H], ion source: ESI, ion mode: Positive.
[4] abbreviates: ion type: [M+Na], ion source: ESI, ion mode: Positive.
The mark [5] stands for this setting: ion type: [M+], ion source: APCI, ion mode: Positive.
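Note: chemical standards at 10 µM analysed by drift tube IMS-QTOF MS in about 3.95 torr nitrogen, mean of duplicate injections differing ≤1%, mass error below 10 ppm.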

Regarding `CCc1cccc(O)c1` [3-Ethylphenol], under setting [1], the “collision cross section in nitrogen” value stood at 127.5 Å².

As for `OCc1ncccc1O` [3-Hydroxy-2-(hydroxymethyl)pyridine hydrochloride], the “collision cross section in nitrogen” value worked out at 121.7 Å² under setting [2], 122.1 Å² under setting [3] and 119.9 Å² under setting [1].

Regarding `O=C(Nc1ccccc1)c1cc2ccccc2cc1O` [3-Hydroxy-2-naphthanilide], the “collision cross section in nitrogen” value is on record as 160.9 Å² under setting [2], 160.7 Å² under setting [3] and 160.7 Å² under setting [1].

On to `O=C(O)c1cc2ccccc2cc1O` [3-Hydroxy-2-naphthoic acid], for which the “collision cross section in nitrogen” value under setting [1] is listed as 135.6 Å².

With `COc1ccccc1NC(=O)c1cc2ccccc2cc1O` [3-Hydroxy-2-naphthoic o-anisidide], the “collision cross section in nitrogen” value is 167.3 Å² under setting [2], 167.5 Å² under setting [3], 181.8 Å² under setting [4] and 168.9 Å² under setting [1].

As to `CCOc1ccc(NC(=O)CC(C)O)cc1` (stereo unspecified) [3-Hydroxy-4-butyrophenetidide], the “collision cross section in nitrogen” value is, setting by setting: under setting [2], 155.5 Å²; under setting [3], 155.6 Å²; under setting [4], 169.5 Å².

As to `O=C(Nc1cccc([N+](=O)[O-])c1)c1cc2ccccc2cc1O` [3-Hydroxy-N-(3-nitrophenyl)naphthalene-2-carboxamide], the “collision cross section in nitrogen” value under setting [1] stood at 170.2 Å².

As for `Oc1ccc2c(c1)-c1ccccc1C2` [3-Hydroxyfluorene], the “collision cross section in nitrogen” value under setting [1] was 142.4 Å².

With `Oc1cccc(I)c1` [3-Iodophenol], the “collision cross section in nitrogen” value under setting [1] stood at 122.5 Å².

Consider `CC(C)c1cccc(O)c1` [3-Isopropylphenol], for which the “collision cross section in nitrogen” value under setting [1] is reported as 132.9 Å².

As to `COc1cc(C)cc(O)c1` [3-Methoxy-5-methylphenol], the “collision cross section in nitrogen” value under setting [1] stood at 130.1 Å².

On to `CC1=NN(c2ccc(C)cc2)C(=O)C1` [3-Methyl-1-p-tolyl-5-pyrazolone], for which the “collision cross section in nitrogen” value is recorded as 142.9 Å² under setting [3], 156.9 Å² under setting [4] and 144.4 Å² under setting [1].

Consider `Cc1cc(N)n(-c2ccccc2)n1` [3-Methyl-1-phenyl-1H-pyrazol-5-amine], for which the “collision cross section in nitrogen” value was 136.3 Å² under setting [2], 136.5 Å² under setting [3] and 136.1 Å² under setting [1].

Consider `CC1COc2ccccc2N1` (stereo unspecified) [3-Methyl-3,4-dihydro-2H-1,4-benzoxazine], for which the “collision cross section in nitrogen” value is 130.4 Å² under setting [2] and 131.2 Å² under setting [3].

Turning to `CC1=NNC(=O)C1` [3-Methyl-5-pyrazolone], the “collision cross section in nitrogen” value amounted to 119.1 Å² under setting [3] and 117.9 Å² under setting [1].

`Cc1cccc(Nc2ccccc2)c1` [3-Methyl-N-phenylaniline]: the “collision cross section in nitrogen” value under setting [2] is on record as 143.2 Å², the “collision cross section in nitrogen” value under setting [3] came out at 143.6 Å² and the “collision cross section in nitrogen” value under setting [5] was found to be 139.3 Å².

`Cc1c[nH]c2ccccc12` [3-Methylindole]: the “collision cross section in nitrogen” value under setting [1] is given as 125.2 Å².

Take `O=C(O)c1cccc([N+](=O)[O-])c1` [3-Nitrobenzoic acid]: under setting [1], the “collision cross section in nitrogen” value is given as 131.2 Å².

Consider `CC(=O)CC(=O)Nc1ccc2[nH]c(=O)[nH]c2c1` [3-Oxo-N-(2-oxo-2,3-dihydro-1H-benzimidazol-5-yl)butanamide], for which the “collision cross section in nitrogen” value under setting [1] is 154.4 Å².

Consider `O=C(O)c1cccc(Oc2ccccc2)c1` [3-Phenoxybenzoic acid], for which, under setting [1], the “collision cross section in nitrogen” value was found to be 155.6 Å².

Regarding `Oc1cccc(-c2ccccc2)c1` [3-Phenylphenol], the “collision cross section in nitrogen” value under setting [1] was found to be 140 Å².

On to `Nc1cccnc1` [3-Pyridinamine], for which the “collision cross section in nitrogen” value was 115 Å² under setting [2] and 115.2 Å² under setting [3].

On to `Oc1cccnc1` [3-Pyridinol], for which the “collision cross section in nitrogen” value was 117.3 Å² under setting [3] and 114.6 Å² under setting [1].

For the compound `CCCCCCCCCCCSCC(=O)O` [3-Thiatetradecanoic acid], the “collision cross section in nitrogen” value under setting [1] is given as 162.7 Å².

As for `CC(C)(C)c1cc(CCC(=O)NN)cc(C(C)(C)C)c1O` [3-[3,5-DI(tert-butyl)-4-hydroxyphenyl]propanohydrazide], the “collision cross section in nitrogen” value is given as 179.3 Å² under setting [4] and 174.5 Å² under setting [1].

For the compound `CCN(CCC#N)c1ccccc1` [3-[Ethyl(phenyl)amino]propanenitrile], the “collision cross section in nitrogen” value is, setting by setting: under setting [2], 138.5 Å²; under setting [3], 139.3 Å².

On to `CC(C)(C)c1cccc(O)c1` [3-tert-Butylphenol], for which, under setting [1], the “collision cross section in nitrogen” value is recorded as 136.9 Å².

With `CN(C)CCCNCCC#N` [3-{[3-(Dimethylamino)propyl]amino}propanenitrile], the “collision cross section in nitrogen” value worked out at 130.8 Å² under setting [2] and 131.9 Å² under setting [3].

As for `CC(=O)Nc1ccc(C(=O)CCl)cc1` [4'-(Chloroacetyl)acetanilide], the “collision cross section in nitrogen” value under setting [1] is recorded as 144.9 Å².

As to `COc1cc(NC(=O)CC(C)=O)c(OC)cc1Cl` [4'-Chloro-2',5'-dimethoxyacetoacetanilide], the “collision cross section in nitrogen” value runs as follows: under setting [3], 160.8 Å²; under setting [4], 168.5 Å²; under setting [5], 156.7 Å²; under setting [1], 161.1 Å².

With `CC(=O)CC(=O)Nc1ccc(Cl)cc1` [4'-Chloroacetoacetanilide], the “collision cross section in nitrogen” value under setting [1] was determined as 143.8 Å².

As for `Nc1ccc(-c2ccc(F)cc2)cc1` [4'-Fluoro-4-aminodiphenyl], the “collision cross section in nitrogen” value runs as follows: under setting [3], 156.4 Å²; under setting [5], 136.9 Å².

`CC(c1ccc(O)cc1)(c1ccc(O)cc1)c1ccc(O)cc1` [4,4',4''-Ethane-1,1,1-triyltriphenol]: under setting [1], the “collision cross section in nitrogen” value was 184.3 Å².

As to `CC(c1ccccc1)(c1ccc(O)cc1)c1ccc(O)cc1` [4,4'-(1-Phenylethylidene)bisphenol], the “collision cross section in nitrogen” value under setting [1] was 180 Å².

With `N#Cc1ccc(C(c2ccc(C#N)cc2)n2cncn2)cc1` [4,4'-(1H-1,2,4-Triazol-1-ylmethylene)dibenzonitrile], the “collision cross section in nitrogen” value under setting [1] turned out to be 166.5 Å².

With `CC(C)CC(C)(c1ccc(O)cc1)c1ccc(O)cc1` [4,4'-(4-Methylpentane-2,2-diyl)diphenol], the “collision cross section in nitrogen” value under setting [1] is given as 175.3 Å².

Consider `Oc1ccc(C2(c3ccc(O)cc3)c3ccccc3-c3ccccc32)cc1` [4,4'-(9H-Fluorene-9,9-diyl)diphenol], for which the “collision cross section in nitrogen” value under setting [1] stood at 194.8 Å².

Consider `C1CN(CCOCCN2CCOCC2)CCO1` [4,4'-(Oxydiethylene)bis(morpholine)], for which the “collision cross section in nitrogen” value was determined as 151.8 Å² under setting [2], 152.2 Å² under setting [3] and 156.9 Å² under setting [4].

Regarding `Nc1ccc(Cc2ccc(N)cc2)cc1` [4,4'-Diaminobiphenyl methane], the “collision cross section in nitrogen” value is given as 163.3 Å² under setting [2] and 163.1 Å² under setting [3].

For the compound `CCCCCCCCc1ccc(Nc2ccc(CCCCCCCC)cc2)cc1` [4,4'-Dioctyldiphenylamine], the “collision cross section in nitrogen” value reads like this: under setting [2], 218.8 Å²; under setting [3], 219.9 Å²; under setting [5], 219.4 Å²; under setting [1], 221 Å².

Turning to `CC(C)(C)c1cc(Cc2cc(C(C)(C)C)c(O)c(C(C)(C)C)c2)cc(C(C)(C)C)c1O` [4,4'-Methylenebis(2,6-di-t-butylphenol)], the “collision cross section in nitrogen” value under setting [1] was 221.2 Å².

Regarding `c1cc(N(CC2CO2)CC2CO2)ccc1Cc1ccc(N(CC2CO2)CC2CO2)cc1` (stereo unspecified) [4,4'-Methylenebis(N,N-diglycidylaniline)], the “collision cross section in nitrogen” value came to 215.7 Å² under setting [2], 215.2 Å² under setting [3] and 199.7 Å² under setting [4].

With `CN(C)c1ccc(Cc2ccc(N(C)C)cc2)cc1` [4,4'-Methylenebis(N,N-dimethylaniline)], the “collision cross section in nitrogen” value runs as follows: under setting [2], 175.3 Å²; under setting [3], 174.8 Å².

Turning to `Cc1cc(Cc2ccc(N)c(C)c2)ccc1N` [4,4'-Methylenebis(o-toluidine)], the “collision cross section in nitrogen” value is, setting by setting: under setting [2], 179.1 Å²; under setting [3], 171.2 Å².

Take `Nc1ccc(Oc2ccc(N)cc2)cc1` [4,4'-Oxydianiline]: the “collision cross section in nitrogen” value reads like this: under setting [2], 167.4 Å²; under setting [3], 160.7 Å²; under setting [5], 146.6 Å².

Regarding `c1cc(CCCc2ccncc2)ccn1` [4,4'-Propane-1,3-diyldipyridine], the “collision cross section in nitrogen” value is, setting by setting: under setting [2], 146.1 Å²; under setting [3], 145.7 Å².

For the compound `Cc1cc(C(C)(C)c2cc(C)c(O)c(C)c2)cc(C)c1O` [4,4'-Propane-2,2-diylbis(2,6-dimethylphenol)], under setting [1], the “collision cross section in nitrogen” value is on record as 182.9 Å².

For the compound `C=CCc1cc(S(=O)(=O)c2ccc(O)c(CC=C)c2)ccc1O` [4,4'-Sulfonylbis[2-(prop-2-en-1-yl)phenol]], the “collision cross section in nitrogen” value amounted to 182.5 Å² under setting [3] and 197.2 Å² under setting [4].

Turning to `Nc1ccc(Sc2ccc(N)cc2)cc1` [4,4'-Thiodianiline], the “collision cross section in nitrogen” value runs as follows: under setting [2], 164.9 Å²; under setting [3], 164.4 Å²; under setting [5], 148.1 Å².

Regarding `CC(CCC(=O)O)(c1ccc(O)cc1)c1ccc(O)cc1` [4,4-Bis(4-hydroxyphenyl)valeric acid], the “collision cross section in nitrogen” value under setting [1] turned out to be 177.5 Å².

Take `Nc1ccc(-c2ccc(N)cc2)cc1` [4,4′-Diamino-1,1′-biphenyl]: the “collision cross section in nitrogen” value by setting is: under setting [2], 156.9 Å²; under setting [3], 157 Å²; under setting [5], 139.4 Å².

For the compound `CC(C)(C)CC(C)(C)c1ccc(O)cc1` [4-(1,1,3,3-Tetramethylbutyl)phenol], the “collision cross section in nitrogen” value under setting [1] was 157.1 Å².

These data come from the supplement of paper PMC12317010.
